Experimental data as given in patent US7781591B2, “Substituted 3-cyanopyridines as protein kinase inhibitors” (Wyeth LLC, priority 2006, dated 2010).

These compounds were tested against T1, human PKCθ full length enzyme (Homo sapiens, UniProt Q04759) (assay: PKCθ IMAP assay (fluorescence polarization)). Settings: not given.
T1 construct: human PKCθ full length enzyme (Panvera Cat# P2996); purchased Panvera P2996
Type: biochemical

T1 sequence (Q04759 whole entry): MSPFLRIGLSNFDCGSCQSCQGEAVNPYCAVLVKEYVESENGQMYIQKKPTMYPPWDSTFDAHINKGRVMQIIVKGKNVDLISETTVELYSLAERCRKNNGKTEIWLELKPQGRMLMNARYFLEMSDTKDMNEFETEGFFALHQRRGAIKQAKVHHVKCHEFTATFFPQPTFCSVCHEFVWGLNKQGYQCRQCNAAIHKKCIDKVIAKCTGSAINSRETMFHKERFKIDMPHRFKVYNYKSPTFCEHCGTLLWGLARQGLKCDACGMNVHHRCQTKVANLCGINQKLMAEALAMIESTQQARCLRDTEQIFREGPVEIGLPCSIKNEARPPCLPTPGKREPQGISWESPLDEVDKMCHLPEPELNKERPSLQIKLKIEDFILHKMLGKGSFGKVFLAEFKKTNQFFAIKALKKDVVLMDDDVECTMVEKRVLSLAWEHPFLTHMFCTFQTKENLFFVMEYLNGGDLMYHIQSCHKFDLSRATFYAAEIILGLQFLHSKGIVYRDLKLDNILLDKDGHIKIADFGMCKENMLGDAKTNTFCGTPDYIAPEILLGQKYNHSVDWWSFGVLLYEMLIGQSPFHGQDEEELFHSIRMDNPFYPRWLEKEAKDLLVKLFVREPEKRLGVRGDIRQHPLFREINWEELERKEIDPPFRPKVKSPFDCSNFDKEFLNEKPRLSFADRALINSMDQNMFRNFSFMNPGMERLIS

| Compound | IC50 |
| --- | --- |
| Cc1c(Nc2c(C#N)cncc2-c2cc3cc(CN4CCN(C)CC4)ccc3s2)ccc2[nH]ccc12 [Compound 521, 4-[(4-methyl-1H-indol-5-yl)amino]-5-{5-[(4-methylpiperazin-1-yl)methyl]-1-benzothien-2-yl}nicotinonitrile] | 1 nM |
| COc1ccc(-c2cncc(C#N)c2-c2ccc3[nH]ccc3c2)cc1OC [Compound 221, 5-(3,4-dimethoxyphenyl)-4-(1H-indol-5-yl)nicotinonitrile] | 1750 nM |

Same assay, conditions: human PKCθ full length enzyme, IMAP; average value; read-out: IC50 PKCθ IMAP

| IC50 | Compound |
| --- | --- |
| 84 nM | COc1ccc(CN2CCN(C)CC2)cc1-c1cncc(C#N)c1Nc1ccc2[nH]ccc2c1C [Compound 552, 5-{2-methoxy-5-[(4-methylpiperazin-1-yl)methyl]phenyl}-4-[(4-methyl-1H-indol-5-yl)amino]nicotinonitrile] |
| 205 nM | Cc1c(Nc2c(C#N)cncc2-c2ccccc2CN(C)C)ccc2[nH]ccc12 [Compound 550, 5-{2-[(dimethylamino)methyl]phenyl}-4-[(4-methyl-1H-indol-5-yl)amino]nicotinonitrile] |
| 737 nM | COc1ccc(-c2cncc(C#N)c2Nc2cccc3cc[nH]c23)cc1OC [Compound 544, 5-(3,4-dimethoxyphenyl)-4-(1H-indol-7-ylamino)nicotinonitrile] |
| 2 nM | Cc1c(Nc2c(C#N)cncc2-c2cc3cc(CNCCO)ccc3o2)ccc2[nH]ccc12 [Compound 383, 5-(5-{[(2-hydroxyethyl)amino]methyl}-1-benzofuran-2-yl)-4-[(4-methyl-1H-indol-5-yl)amino]nicotinonitrile] |
| 3 nM | N#Cc1cncc(-c2cc3cc(CNCc4ccccn4)ccc3s2)c1Nc1cccc2[nH]ccc12 [Compound 288, 4-(1H-indol-4-ylamino)-5-(5-{[(pyridin-2-ylmethyl)amino]methyl}-1-benzothien-2-yl)nicotinonitrile] |
| 7 nM | COc1cc(-c2cncc(C#N)c2Nc2ccc3[nH]ccc3c2C)ccc1OCCCl [Compound 372, 5-[4-(2-chloroethoxy)-3-methoxyphenyl]-4-[(4-methyl-1H-indol-5-yl)amino]nicotinonitrile] |
| 4 nM | Cc1c(Nc2c(C#N)cncc2-c2cc3cc(OCCN4CCN(C)CC4)ccc3o2)ccc2[nH]ccc12 [Compound 438, 4-[(4-methyl-1H-indol-5-yl)amino]-5-{5-[2-(4-methylpiperazin-1-yl)ethoxy]-1-benzofuran-2-yl}nicotinonitrile] |
| 250 nM | COc1ccc(-c2cncc(C#N)c2Nc2ccc3[nH]ccc3c2)cc1OCCN1CCN(C)CC1 [Compound 231, 4-(1H-indol-5-ylamino)-5-{4-methoxy-3-[2-(4-methylpiperazin-1-yl)ethoxy]phenyl}nicotinonitrile] |
| 30 nM | COCCOc1cccc(-c2cncc(C#N)c2Nc2cccc3[nH]ccc23)c1 [Compound 164, 4-(1H-indol-4-ylamino)-5-[3-(2-methoxyethoxy)phenyl]nicotinonitrile] |
| 250 nM | COc1ccc(-c2cncc(C#N)c2Nc2ccc3[nH]ccc3c2)cc1-c1ccccc1Cl [Compound 193, 5-(2′-chloro-6-methoxybiphenyl-3-yl)-4-(1H-indol-5-ylamino)nicotinonitrile] |
| 180 nM | COc1ccc(-c2cncc(C#N)c2Nc2ccc3[nH]ccc3c2)cc1-c1ccc(Cl)cc1 [Compound 190, 5-(4′-chloro-6-methoxybiphenyl-3-yl)-4-(1H-indol-5-ylamino)nicotinonitrile] |
| 170 nM | COc1ccc(-c2cncc(C#N)c2Nc2ccc3[nH]ccc3c2)cc1OCCNC1CCCCC1 [Compound 244, 5-{3-[2-(cyclohexylamino)ethoxy]-4-methoxyphenyl}-4-(1H-indol-5-ylamino)nicotinonitrile] |
| 23 nM | Cc1c(Nc2c(C#N)cncc2-c2cccc3ccccc23)ccc2[nH]ccc12 [Compound 581, 4-[(4-methyl-1H-indol-5-yl)amino]-5-(1-naphthyl)nicotinonitrile] |
| 10 nM | CN(C)Cc1ccc(-c2cccc(-c3cncc(C#N)c3Nc3cccc4[nH]ccc34)c2)s1 [Compound 315, 5-(3-{5-[(dimethylamino)methyl]-2-thienyl}phenyl)-4-(1H-indol-4-ylamino)nicotinonitrile] |
| 50 nM | N#Cc1cncc(-c2cccc(Br)c2)c1Nc1ccc2[nH]ccc2c1 [Compound 113, 5-(3-bromophenyl)-4-(1H-indol-5-ylamino)nicotinonitrile] |
| 60 nM | CCCCNC(=O)c1ccc(-c2cccc(-c3cncc(C#N)c3Nc3cccc4[nH]ccc34)c2)cc1 [Compound 215, N-butyl-3′-[5-cyano-4-(1H-indol-4-ylamino)pyridin-3-yl]biphenyl-4-carboxamide] |
| 280 nM | N#Cc1cncc(-c2cccc(-c3ccc(C(=O)NCCCCO)cc3)c2)c1Nc1ccc2[nH]ccc2c1 [Compound 209, 3′-[5-cyano-4-(1H-indol-5-ylamino)pyridin-3-yl]-N-(4-hydroxybutyl)biphenyl-4-carboxamide] |
| 30 nM | N#Cc1cncc(-c2cccc(-c3ccc(C(=O)NCCCCO)cc3)c2)c1Nc1cccc2[nH]ccc12 [Compound 308, 3′-[5-cyano-4-(1H-indol-4-ylamino)pyridin-3-yl]-N-(4-hydroxybutyl)biphenyl-4-carboxamide] |
| 9 nM | Cc1c(Nc2c(C#N)cncc2-c2ccc(OCCNCc3ccccn3)cc2)ccc2[nH]ccc12 [Compound 432, 4-[(4-methyl-1H-indol-5-yl)amino]-5-(4-{2-[(pyridin-2-ylmethyl)amino]ethoxy}phenyl)nicotinonitrile] |

| IC50 | Compound |
| --- | --- |
| 30 nM | COc1ccc(-c2cncc(C#N)c2Nc2cccc3[nH]ccc23)cc1OCCN1CCC(O)CC1 [Compound 302, 5-{3-[2-(4-hydroxypiperidin-1-yl)ethoxy]-4-methoxyphenyl}-4-(1H-indol-4-ylamino)nicotinonitrile] |
| 33400 nM | CN(C)c1ccc(-c2cncc(C#N)c2Nc2cc(O)[nH]n2)cc1 [Compound 294, 5-[4-(dimethylamino)phenyl]-4-[(5-hydroxy-1H-pyrazol-3-yl)amino]nicotinonitrile] |
| 9 nM | Cc1c(Nc2c(C#N)cncc2-c2ccc(CN3CCOCC3)cc2)ccc2[nH]ccc12 [Compound 451, 4-[(4-methyl-1H-indol-5-yl)amino]-5-[4-(morpholin-4-ylmethyl)phenyl]nicotinonitrile] |
| 260 nM | CN1CCN(Cc2ccc(-c3cccc(-c4cncc(C#N)c4Nc4ccc5[nH]ccc5c4)c3)s2)CC1 [Compound 184, 4-(1H-indol-5-ylamino)-5-(3-{5-[(4-methylpiperazin-1-yl)methyl]-2-thienyl}phenyl)nicotinonitrile] |
| 30 nM | COc1ccc(-c2cncc(C#N)c2Nc2cccc3[nH]ccc23)cc1OCCN1CCOCC1 [Compound 299, 4-(1H-indol-4-ylamino)-5-[4-methoxy-3-(2-morpholin-4-ylethoxy)phenyl]nicotinonitrile] |
| 5 nM | COc1ccc(-c2cncc(C#N)c2Nc2ccc3[nH]ccc3c2F)cc1OC [Compound 546, 5-(3,4-dimethoxyphenyl)-4-[(4-fluoro-1H-indol-5-yl)amino]nicotinonitrile] |
| 8 nM | Cc1c(Nc2c(C#N)cncc2-c2ccc(CN3CCOCC3)o2)ccc2[nH]ccc12 [Compound 401, 4-[(4-methyl-1H-indol-5-yl)amino]-5-[5-(morpholin-4-ylmethyl)-2-furyl]nicotinonitrile] |
| 8 nM | Cc1c(Nc2c(C#N)cncc2-c2cc3cc(CO)ccc3s2)ccc2[nH]ccc12 [Compound 229, 5-[5-(hydroxymethyl)-1-benzothien-2-yl]-4-[(4-methyl-1H-indol-5-yl)amino]nicotinonitrile] |
| 9 nM | CCN1CCN(CCOc2ccc(-c3cncc(C#N)c3Nc3ccc4[nH]ccc4c3C)cc2)CC1 [Compound 425, 5-{4-[2-(4-ethylpiperazin-1-yl)ethoxy]phenyl}-4-[(4-methyl-1H-indol-5-yl)amino]nicotinonitrile] |
| 9 nM | Cc1c(Nc2c(C#N)cncc2-c2ccc(OCCCN(C)C)cc2)ccc2[nH]ccc12 [Compound 475, 5-{4-[3-(dimethylamino)propoxy]phenyl}-4-[(4-methyl-1H-indol-5-yl)amino]nicotinonitrile] |
| 20 nM | COc1ccc(-c2cncc(C#N)c2Nc2ccc3[nH]ccc3c2)cc1OCCNCCCc1ccccc1 [Compound 250, 4-(1H-indol-5-ylamino)-5-(4-methoxy-3-{2-[(3-phenylpropyl)amino]ethoxy}phenyl)nicotinonitrile] |
| 250 nM | N#Cc1cncc(-c2ccc(OCc3ccccc3)cc2)c1Nc1ccc2[nH]ccc2c1 [Compound 195, 5-[4-(benzyloxy)phenyl]-4-(1H-indol-5-ylamino)nicotinonitrile] |
| 100 nM | CN(C)Cc1cccc(-c2cncc(C#N)c2Nc2cccc3[nH]ccc23)c1 [Compound 271, 5-{3-[(dimethylamino)methyl]phenyl}-4-(1H-indol-4-ylamino)nicotinonitrile] |
| 529 nM | COc1ccc(-c2cncc(C#N)c2NC[C@H]2CC[C@H](CN)CC2)cc1OC [Compound 441, 4-({[trans-4-(aminomethyl)cyclohexyl]methyl}amino)-5-(3,4-dimethoxyphenyl)nicotinonitrile] |
| 33 nM | Cc1cc2[nH]ccc2cc1Nc1c(C#N)cncc1-c1ccc(OCCN2CCN(C)CC2)cc1 [Compound 496, 4-[(6-methyl-1H-indol-5-yl)amino]-5-{4-[2-(4-methylpiperazin-1-yl)ethoxy]phenyl}nicotinonitrile] |
| 19.7 nM | Cc1c(Nc2c(C#N)cncc2-c2ccc3occc3c2)ccc2[nH]ccc12 [Compound 591, 5-(1-benzofuran-5-yl)-4-[(4-methyl-1H-indol-5-yl)amino]nicotinonitrile] |
| 156 nM | Cc1c(Nc2c(C#N)cncc2-c2cccnc2Cl)ccc2[nH]ccc12 [Compound 471, 2′-chloro-4-[(4-methyl-1H-indol-5-yl)amino]-3,3′-bipyridine-5-carbonitrile] |
| 41 nM | Cc1c(Nc2c(C#N)cncc2-c2ccc(CN3CCCCC3)o2)ccc2[nH]ccc12 [Compound 402, 4-[(4-methyl-1H-indol-5-yl)amino]-5-[5-(piperidin-1-ylmethyl)-2-furyl]nicotinonitrile] |
